Assay results reported in paper PMC9139979, “Features of ZED1227: The First-In-Class Tissue Transglutaminase Inhibitor Undergoing Clinical Evaluation for the Treatment of Celiac Disease” (Cells, 2022).
Entries after “also recorded” stand apart in the source; their conditions may differ.

Legend:
[1] = Reactivity towards thiols (excess glutathione); assay type: physicochemical; details: 160-fold excess GSH, 25 °C, after 48 h
Method: To exclude undesired reactions of ZED1227 with biological thiols, an investigation was performed with the tripeptide glutathione (GSH) as a surrogate. ZED1227 (60 μM) was incubated with a 160-fold excess of glutathione (10,000 μM) in aqueous media [containing 7% (v/v) tetrahydrofuran and 13% (v/v) methanol] at ambient temperature (25 °C). The parent compound and the GSH-adduct formed after 48 h were determined by HPLC (vide supra).

[2] = system: healthy female and male volunteers; assay: Phase 1 clinical trial in healthy individuals; assay type: in vivo, human
Method: The phase 1 clinical trial involved more than 100 healthy individuals exposed to up to 500 mg of ZED1227. […] Accordingly, the new chemical entity was progressed to a phase 2a clinical study. The efficacy and safety of a 6-week treatment with ZED1227 was assessed in a randomized, double-blind, placebo-controlled, dose-finding trial at three dose levels (10, 50, 100 mg). In this trial, adult patients with well-controlled celiac disease were challenged with 3 g daily gluten intake to assess the protective effect of ZED1227 on the mucosa. […] Based on the promising results a phase 2b study was initiated in celiac disease patients suffering from symptoms despite following a “gluten-free diet”—essentially an adjunct treatment. There will be no gluten challenge in this “real-life” study, which aims to further substantiate the protective effect of ZED1227 and impact on quality of life in celiac disease patients. It remains to be seen whether the promising clinical data obtained so far translate into a viable, commercially successful drug for patient benefit.

[3] = system: Huh7 cells; assay: BrdU cell proliferation ELISA, Huh7; assay type: cell-based, human; details: up to 1,000 μM, 24 h + 24 h
Method: Cytotoxicological analysis of ZED1227 was performed using Huh7 (human liver carcinoma, CLS Cell Lines Service GmbH, Eppelheim, Germany) and Caco-2 cells (human epithelial colorectal adenocarcinoma, Sigma Aldrich, Taufkirchen, Germany) with respect to the effect on proliferation and viability, according to the assay protocols provided by the manufacturers of the respective kits. The Cell Proliferation ELISA (BrdU, colorimetric) was purchased from Roche (Mannheim, Germany), whereas the Cell Proliferation and Cytotoxicity Assay EZ4U was purchased from Biomedica (Vienna, Austria). Briefly, Caco-2 cells (in MEM with 1% non-essential amino acid solution, both Sigma Aldrich (Taufkirchen, Germany), 10% fetal bovine serum, 2 mM L-glutamine, 100 U/mL penicillin–streptomycin, all from Gibco) or Huh7 cells (in DMEM low glucose, Sigma Aldrich (Taufkirchen, Germany), 10% fetal bovine serum, 1 mM sodium pyruvate, 100 U/mL penicillin–streptomycin, all from Gibco) were cultured in 96 well plates, using 2.5 μg/mL cycloheximide and 0.2 μg/mL camptothecin-treated cells as positive control. In the 5-bromo-2′-deoxyuridine (BrdU) assay (determination of cell proliferation), the cells were incubated with ZED1227 working solution (1% DMSO in culture medium) up to a concentration of 1,000 μM for 24 h, followed by addition of BrdU into the culture medium and further culturing for 24 h. […]

[4] = system: Huh7 cells; assay: EZ4U viability assay, Huh7; assay type: cell-based; details: up to 1,000 μM, 48 h
Method: Cytotoxicological analysis of ZED1227 was performed using Huh7 (human liver carcinoma, CLS Cell Lines Service GmbH, Eppelheim, Germany) and Caco-2 cells (human epithelial colorectal adenocarcinoma, Sigma Aldrich, Taufkirchen, Germany) with respect to the effect on proliferation and viability, according to the assay protocols provided by the manufacturers of the respective kits. The Cell Proliferation ELISA (BrdU, colorimetric) was purchased from Roche (Mannheim, Germany), whereas the Cell Proliferation and Cytotoxicity Assay EZ4U was purchased from Biomedica (Vienna, Austria). […]
The EZ4U assay (determination of viability) was performed by incubating the cells with ZED1227 working solution (1% DMSO in culture medium) up to a concentration of 1,000 μM for 48 h, followed by addition of a yellow tetrazolium reagent (not further specified) into the culture medium. The non-toxic tetrazolium salts were reduced to red-colored formazan which was quantified spectrophotometrically. […]

[5] = biological target: T1, hTG3 (Homo sapiens, UniProt Q08188); assay: Fluorescent transamidation assay (DCC-assay), hTG3; assay type: biochemical
T1 construct: purchased Zedira T013
T1 sequence (Q08188 2-467 limits assumed): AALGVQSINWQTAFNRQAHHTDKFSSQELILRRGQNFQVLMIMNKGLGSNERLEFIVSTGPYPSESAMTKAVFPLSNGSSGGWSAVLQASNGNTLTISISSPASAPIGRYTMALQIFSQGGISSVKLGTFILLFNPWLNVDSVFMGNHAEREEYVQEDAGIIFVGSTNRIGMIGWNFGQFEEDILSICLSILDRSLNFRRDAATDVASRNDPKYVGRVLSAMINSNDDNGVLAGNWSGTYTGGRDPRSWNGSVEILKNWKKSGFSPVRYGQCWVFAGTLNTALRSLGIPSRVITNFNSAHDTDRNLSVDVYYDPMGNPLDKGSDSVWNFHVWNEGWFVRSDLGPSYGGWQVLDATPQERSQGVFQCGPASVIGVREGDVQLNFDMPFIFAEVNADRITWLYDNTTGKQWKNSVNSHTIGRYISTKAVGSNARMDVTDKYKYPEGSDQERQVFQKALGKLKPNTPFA
T1 sequence (Q08188 468-693 partner limits assumed): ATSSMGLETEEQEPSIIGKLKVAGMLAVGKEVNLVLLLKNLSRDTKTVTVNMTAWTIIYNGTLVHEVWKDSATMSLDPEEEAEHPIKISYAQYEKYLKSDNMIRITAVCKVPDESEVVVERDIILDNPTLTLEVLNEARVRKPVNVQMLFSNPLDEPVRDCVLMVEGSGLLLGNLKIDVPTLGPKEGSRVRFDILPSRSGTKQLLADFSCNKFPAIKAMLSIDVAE

CCC(CC)CNC(=O)Cn1cccc(NC(=O)[C@H](CC/C=C/C(=O)OC)NC(=O)c2cncn2C)c1=O [ZED1227, (S,E)-Methyl 7-(1-(2-(2-ethylbutylamino)-2-oxoethyl)-2-oxo-1,2-dihydropyridin-3-ylamino)-6-(1-methyl-1H-imidazole-5-carboxamido)-7-oxohept-2-enoate]
Reactivity towards excess glutathione: parent drug compound recovery ([1]; 60 μM compound): 98% parent drug compound recovery (after 48 h)
Glutathione-adduct formed [1]: 2%
Safety and tolerability, phase 1 ([2]; more than 100 healthy individuals, up to 500 mg, EudraCT 2014-003044-13 and 2015-005283-42): safe and well-tolerated
Overall safety and tolerability, phase 1 and phase 2a ([2]; more than 100 healthy volunteers and 123 patients in verum groups): safe and well-tolerated
Cytotoxicity: Proliferation, Huh7 cells [3]: nor did it affect cell proliferation rates; also recorded: no effect up to 1,000 μM no effect up to 1,000 μM no effect up to 1,000 μM no effect up to 1,000 μM
Cytotoxicity: Viability, Huh7 cells [4]: not cytotoxic up to 1,000 μM; also recorded: no effect up to 1,000 μM no effect up to 1,000 μM no effect up to 1,000 μM no effect up to 1,000 μM
Selectivity hTG3 versus hTG2 ([5]; ratio of app. IC50 values): >900 fold
IC50 ([5]; recombinant, activated hTG3a, transamidation assay, read-out: App. IC50 hTG3): > 50 µM
